The source of these data is US5677327A, “Method for identifying muscarinic agents lacking miotic side effects” (priority 1995, dated 1997).

SMILES strings stand for the structures. Where two headings read alike, the source gives them in different places.

Data set [1] has as its target T1, human m3 receptor subtype (Homo sapiens, UniProt P20309).
T1 construct: expressed in transfected cells
In words: Agonist-induced hydrolysis of inositol phospholipids (PI hydrolysis) in CHO-K1 cells expressing m3. It counts as cell-based. Particulars: for Emax: CHO-K1, 0.5 h, read-out: MAXIMUM RESPONSE BY MUSCARINIC AGONISTS, m3 cells; for EC50: CHO-K1 m3 cells, EC50 calculated as 50% of the maximum response of the PI hydrolysis, read-out: POTENCY ON PI HYDROLYSIS, EC 50, m3 cells. The procedure:
(§1) Chinese hamster ovary (CHO-K1) cells stably expressing the human m3 or m5 receptor subtype were grown to confluency in DMEM/F12 medium containing 10% fetal calf serum and 1 unit/ml penicillin/streptomycin in a 37° C. incubator. Activity of muscarinic agonists in these cells was determined by measuring agonist induced hydrolysis of inositol phospholipids. Confluent cells plated at 0.1×10^6 cells/well in a 24-well dish were incubated in medium containing 4 μCi/ml myo-[2-^3 H] inositol overnight. This labels the inositol phospholipids in the cells. The next morning, the cells were washed to remove excess medium and incubated for 10 minutes before and 30 minutes after the addition of various muscarinic agonists in assay buffer containing 10 mM LiCl. The hydrolysis of inositol phospholipids generates inositol phosphates which were extracted and separated on dowex-formate columns and radioactivity determined. Radioactivity of the unhydrolyzed inositol phospholipids was also determined and percent hydrolysis calculated as a measure of agonist activity.
(§2) The EC50 was calculated as 50% of the maximum response of the PI hydrolysis

Data set [2] deals with T2, human m5 receptor subtype (Homo sapiens, UniProt P08912).
T2 construct: expressed in transfected cells
T2 sequence (P08912 1-532): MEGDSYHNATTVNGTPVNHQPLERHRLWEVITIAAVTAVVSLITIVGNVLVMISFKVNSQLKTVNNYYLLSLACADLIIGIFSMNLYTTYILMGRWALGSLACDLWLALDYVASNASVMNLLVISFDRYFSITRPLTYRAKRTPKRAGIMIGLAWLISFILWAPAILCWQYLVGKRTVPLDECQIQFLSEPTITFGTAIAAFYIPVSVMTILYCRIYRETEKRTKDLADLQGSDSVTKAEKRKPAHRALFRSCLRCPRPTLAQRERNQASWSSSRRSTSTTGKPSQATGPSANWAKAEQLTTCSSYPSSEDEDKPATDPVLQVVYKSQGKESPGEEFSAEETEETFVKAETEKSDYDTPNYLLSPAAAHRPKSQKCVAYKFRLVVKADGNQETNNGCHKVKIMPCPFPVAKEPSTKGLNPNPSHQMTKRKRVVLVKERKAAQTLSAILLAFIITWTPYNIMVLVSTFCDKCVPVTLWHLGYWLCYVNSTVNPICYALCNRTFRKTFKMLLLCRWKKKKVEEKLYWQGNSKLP
The experiment in a line: Agonist-induced hydrolysis of inositol phospholipids (PI hydrolysis) in CHO-K1 cells expressing m5. It counts as cell-based. Particulars: for Emax: CHO-K1, 0.5 h; for EC50: CHO-K1 m5 cells, EC50 calculated as 50% of the maximum response of the PI hydrolysis, read-out: POTENCY ON PI HYDROLYSIS, EC 50, m5 cells; for m3/m5 ratio: ratio of EC50 at m3 to EC50 at m5, 30 min. Here is the method: as §1, §2

The nature of data set [3]: Test for lowering IOP and miosis. It counts as in vivo. Particulars: for IOP-lowering: in vivo; for miosis: side effect when tested for lowering IOP.
The mark [4] stands for this setting: read-out: MAXIMUM RESPONSE BY MUSCARINIC AGONISTS, m5 cells, read-out: MAXIMUM RESPONSE BY […] AGONISTS, m5 cells.

T1 sequence (P20309 whole entry): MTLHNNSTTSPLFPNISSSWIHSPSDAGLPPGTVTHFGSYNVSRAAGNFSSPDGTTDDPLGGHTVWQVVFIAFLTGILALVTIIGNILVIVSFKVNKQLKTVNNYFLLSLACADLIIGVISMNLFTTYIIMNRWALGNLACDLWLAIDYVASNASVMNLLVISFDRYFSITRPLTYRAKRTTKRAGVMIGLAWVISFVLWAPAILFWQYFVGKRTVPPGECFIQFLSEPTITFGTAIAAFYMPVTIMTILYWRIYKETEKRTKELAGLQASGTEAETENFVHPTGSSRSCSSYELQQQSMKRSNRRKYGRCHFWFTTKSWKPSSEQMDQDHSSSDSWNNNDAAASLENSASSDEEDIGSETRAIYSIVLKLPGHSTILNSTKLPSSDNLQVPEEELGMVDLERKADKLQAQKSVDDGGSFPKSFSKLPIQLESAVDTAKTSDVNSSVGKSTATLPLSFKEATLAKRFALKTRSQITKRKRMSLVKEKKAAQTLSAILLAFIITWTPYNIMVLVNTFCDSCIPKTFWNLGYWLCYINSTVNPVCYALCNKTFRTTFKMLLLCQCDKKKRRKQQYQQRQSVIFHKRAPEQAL

As for `CC[C@H]1C(=O)NC[C@@H]1Cc1cncn1C` [AGN 190456, 3R, 4R-ethyl-[(1-methyl-1H-imidazol-5-yl)methyl]-2-pyrrolidinone], in data set [1], the Emax came out at 70 ± 7% and the EC50 is 20000 nM. The Emax in data set [2] (setting [4]) turned out to be 84 ± 11%. In data set [2], the EC50 was 5000 nM and the m3/m5 ratio is 4. In addition, in data set [3], the IOP-lowering result is “effective” and the miosis result was “minimal miosis”.
On to `CC(=O)N(C)C(C)C#CCN1CCCC1` (centres unmarked) [BM-5, N-Methyl-N-(1-methyl-4-pyrrolidino-2-butynyl)acetamide], for which the figures for the Emax in data set [1], in data set [2] (setting [4]) and in data set [2] (read-out: hydrolysis elicited relative to carbachol at the m5 receptor) were 30 ± 3%, 30 ± 2% and 30%, respectively. For the same molecule, the EC50 was 300 nM in data set [1] and 60 nM in data set [2]. Moreover, the m3/m5 ratio in data set [2] came to 5. The IOP-lowering entry in data set [3] is listed as “IOP-lowering”. For the same molecule, the miosis result in data set [3] is “miosis”.
With `CC1CCC(=O)N1CC#CCN1CCC1` (centres unmarked) [BR-370, N-(4-Azetidinyl-2-butynyl)-5-methyl-2-pyrrolidone], the Emax in data set [1] was determined as 96 ± 40%; in data set [2] (read-out: MAXIMUM RESPONSE BY MUSCARINIC AGONISTS, m5 cells), 110 ± 8%. Moreover, the EC50 is 800 nM in data set [1] and 700 nM in data set [2].
In the case of `C[N+](C)(C)CCOC(N)=O` [CARBACHOL, carbachol], in data set [2] (setting [4]), the Emax came to 100%.
